Data set [1] deals with Myzus persicae (green peach aphid). The experiment in a line: Example B9: Myzus persicae on pepper or cabbage plants, feeding/residual contact activity. To be noted: 144 h, 6 days, read-out: activity against Myzus persicae (mortality). The data set is classed as in vivo.
Data set [2] relates to Nilaparvata lugens (brown rice planthopper). The experiment in a line: Example B6: Nilaparvata lugens, larvicide, feeding/contact. To be noted: in Oryza sativa, read-out: activity (mortality, growth regulation, effects on F1 generation).
Data set [3] deals with Tetranychus urticae (two-spotted spider mite). The experiment in a line: Example B4: Tetranychus urticae, mixed population, feeding/residual contact activity, preventive. The note with it: foliar, 192 h, read-out: activity (egg, larval and adult mortality).
The subject of data set [4] is Thrips tabaci (onion thrips). The experiment in a line: Example B3: Thrips tabaci, mixed population, feeding/residual contact activity, preventive. To be noted: foliar, 144 h, read-out: activity (mortality).
Data set [5] has as its system Myzus persicae (green peach aphid). The experiment in a line: Example B8: drench activity against Myzus persicae. The note with it: soil, 168 h, read-out: activity (mortality), drench.
For data set [6], the system named is Aphis Craccivora (cowpea aphid). The experiment in a line: Example B7: translaminar activity against Aphis craccivora. The format is in vivo. To be noted: 120 h, upper side of French bean leaves painted, 5 days. The method, then:
Translaminar Activity Against Aphis Craccivora (Cowpea Aphid)
French bean leaves (Phaseolus vulgaris) are infested with about 20 mixed age individuals on the lower leaf side using clip cages. 1 day after the infestation, the upper side of the leaves is treated with the test solution by painting. 5 days later, samples are checked for mortality.

The subject of a further data set is pepper plants. To be noted: in vivo, 6 days, 200 ppm. The method, then:
(§1) (Mixed Population, Feeding/Residual Contact Activity, Plant Damage Evaluation)
(§2) Pepper [P] or cabbage […] plants infested with a mixed population of Myzus persicae are treated with diluted test solutions of the compounds in a spray chamber. 6 days after treatment, samples are checked for mortality and for plant damage (phytotoxicity), visual assessment being made using a 0-100% rating scale (100%=total damage to plant; 0%=no damage to plant).

Data set [7] concerns Myzus persicae (green peach aphid). Briefly: Example B2: Myzus persicae, mixed population, systemic/feeding activity, curative. The note with it: 144 h, read-out: activity (mortality).
Data set [8] shares this test system. The experiment in a line: Example B1: Myzus persicae, mixed population, feeding/residual contact activity, preventive. The format is in vivo. The note with it: foliar, 144 h, sprayed sunflower leaf discs, 6 days.
The subject of a further data set is cabbage plants. To be noted: in vivo, 6 days, 200 ppm. The method, then: as §1, §2

This note sets out measurements from US20130065756A1, “SPIROHETEROCYCLIC DIONE DERIVATIVES USED AS PESTICIDES” (SYNGENTA CROP PROTECTION LLC, priority 2009, published 2013).

Where two headings read alike, the source gives them in different places.

Consider `CON1CCC2(CC1)C(=O)C(c1c(C)cc(C)cc1C)C(=O)N2N(C)C` (centres unmarked) [A1, 1-Dimethylamino-8-methoxy-3-(2,4,6-trimethyl-phenyl)-1,8-diaza-spiro[4.5]decane-2,4-dione], for which the mortality at 200 ppm in data set [1] (pepper [P] plants sprayed) is no less than 80%. In addition, the mortality at 400 ppm in data set [2], in [3], in data set [4] and in [6] was greater than 80% throughout. Also, the mortality at 25 ppm in data set [5] was greater than 80%. Besides, the “damage to pepper plants (phytotoxicity)” value in the data set on pepper plants is listed as no more than 10%.

For `CCOC(=O)OC1=C(c2c(C)cc(C)cc2C)C(=O)N(N(C)C)C12CCN(OC)CC2` [A2, Carbonic acid 1-dimethylamino-8-methoxy-2-oxo-3-(2,4,6-trimethyl-phenyl)-1,8-diaza-spiro[4.5]dec-3-en-4-yl ester ethyl ester], in [1] (pepper [P] plants sprayed), the mortality at 200 ppm is no less than 80%. Besides, the mortality at 400 ppm in data set [2], in data set [3], in [7] and in data set [6] was greater than 80% each time. In addition, the mortality at 25 ppm in data set [5] is greater than 80%. For the same molecule, the “damage to pepper plants (phytotoxicity)” value in the data set with pepper plants is on record as no more than 10%.

With `CON1CCC2(CC1)C(O)=C(c1c(C)cc(Cl)cc1C)C(=O)N2N(C)C` [A3], the mortality at 400 ppm in data set [3] was greater than 80%.

For `CCOC(=O)OC1=C(c2c(C)cc(Cl)cc2C)C(=O)N(N(C)C)C12CCN(OC)CC2` [A4], the mortality at 200 ppm in data set [1] (pepper [P] plants sprayed) is no less than 80%. Further, the mortality at 400 ppm in [3], in data set [7] and in data set [8] was greater than 80% throughout. Further, the “damage to pepper plants (phytotoxicity)” value in the data set with pepper plants is listed as no more than 10%.

For `CON1CCC2(CC1)C(O)=C(c1cc(C)ccc1C)C(=O)N2N(C)C` [A5], the mortality at 200 ppm in data set [1] (pepper [P] plants sprayed) is no less than 80%. Further, the “damage to pepper plants (phytotoxicity)” value in the data set with pepper plants is no more than 10%.

For `CON1CCC2(CC1)C(O)=C(c1c(C)cc(C)cc1C)C(=O)N2N1CCOCC1` [B1], the mortality at 200 ppm in data set [1] (cabbage [C] plants sprayed) was no less than 80%. For the same molecule, the mortality at 400 ppm in [3], in data set [7] and in [8] was greater than 80% each time. Moreover, in the data set with cabbage plants, the “damage to cabbage plants (phytotoxicity)” value is on record as no more than 10%.

Regarding `CCOC(=O)OC1=C(c2c(C)cc(C)cc2C)C(=O)N(N2CCOCC2)C12CCN(OC)CC2` [B2], in data set [1] (cabbage [C] plants sprayed), the mortality at 200 ppm was no less than 80%. For the same molecule, the mortality at 400 ppm in [7] and in [8] was greater than 80% each time. For the same molecule, the “damage to cabbage plants (phytotoxicity)” value with cabbage plants was no more than 10%.

On to `CON1CCC2(CC1)C(O)=C(c1c(C)cc(Cl)cc1C)C(=O)N2N1CCOCC1` [B3], for which, in data set [1] (cabbage [C] plants sprayed), the mortality at 200 ppm was no less than 80%. Besides, the mortality at 400 ppm in data set [3], in data set [7] and in data set [8] was greater than 80% in each case. In the data set with cabbage plants, the “damage to cabbage plants (phytotoxicity)” value is given as no more than 10%.

As for `CCOC(=O)OC1=C(c2c(C)cc(Cl)cc2C)C(=O)N(N2CCOCC2)C12CCN(OC)CC2` [B4], the mortality at 200 ppm in data set [1] (cabbage [C] plants sprayed) was no less than 80%. Also, the mortality at 400 ppm in data set [3], in [7] and in data set [8] was greater than 80% each time. Also, the “damage to cabbage plants (phytotoxicity)” value in the data set with cabbage plants is on record as no more than 10%.

As for `CON1CCC2(CC1)C(O)=C(c1cc(C)ccc1C)C(=O)N2N1CCOCC1` [B5], the mortality at 200 ppm in [1] (cabbage [C] plants sprayed) is no less than 80%. The mortality at 400 ppm in [7] is greater than 80%. Besides, the “damage to cabbage plants (phytotoxicity)” value with cabbage plants is listed as no more than 10%.

Regarding `CCOC(=O)OC1=C(c2cc(C)ccc2C)C(=O)N(N2CCOCC2)C12CCN(OC)CC2` [B6], in [1] (cabbage [C] plants sprayed), the mortality at 200 ppm is no less than 80%. The mortality at 400 ppm in [7] was greater than 80%. In the data set with cabbage plants, the “damage to cabbage plants (phytotoxicity)” value is on record as no more than 10%.
